The text below walks through data of patent US20110105509A1 (Wyeth, LLC, priority 2009, published 2011).

Molecules are shown by their SMILES. Where only a bound is given, the exact number is not on record here.

The target in this test is T1, CRTH2 (Homo sapiens, UniProt Q9Y5Y4).
T1 construct: expressed in transfected cells; host or cells: CHO cells
T1 sequence (Q9Y5Y4 1-395): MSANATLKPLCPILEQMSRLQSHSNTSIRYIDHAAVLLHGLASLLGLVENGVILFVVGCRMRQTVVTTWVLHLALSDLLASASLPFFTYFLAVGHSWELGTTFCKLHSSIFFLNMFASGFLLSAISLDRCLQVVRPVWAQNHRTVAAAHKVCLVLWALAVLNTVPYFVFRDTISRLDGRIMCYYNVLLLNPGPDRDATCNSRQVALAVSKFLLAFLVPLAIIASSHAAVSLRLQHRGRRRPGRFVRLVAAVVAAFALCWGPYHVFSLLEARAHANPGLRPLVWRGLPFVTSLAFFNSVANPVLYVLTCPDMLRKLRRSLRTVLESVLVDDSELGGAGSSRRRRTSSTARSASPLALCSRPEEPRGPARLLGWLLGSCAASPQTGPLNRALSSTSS
Put plainly: FRET based competitive immunoassay (cAMP) in CRTH2 expressing CHO cells. In kind it is cell-based. The following applies: CRTH2 expressing CHO cells incubated with forskolin and PGD2; Eu3+ cryptate-labeled anti-cAMP and d2-labeled cAMP. As to the method: FRET Assay: To evaluate potency compounds were tested in a FRET based competitive immunoassay in which CRTH2 expressing CHO cells were incubated in the presence of forskolin and PGD2 along with Eu3+ cryptate-labeled anti-cAMP and d2-labeled cAMP.
On to `Cc1c(-c2ccc(=O)n(Cc3ccccc3C(F)(F)F)n2)c2cc(Cl)ccc2n1CC(=O)O` [Example 211, 2-(5-chloro-2-methyl-3-(6-oxo-1-(2-(trifluoromethyl)benzyl)-1,6-dihydro-pyridazin-3-yl)-1H-indol-1-yl)acetic acid], for which the IC50 amounted to 22 nM. The result for `Cc1c(-c2nn(Cc3ccc(C(F)(F)F)cc3)c(=O)c3ccccc23)c2ccccc2n1CC(=O)O` [Example 171, 2-(2-methyl-3-(4-oxo-3-(4-(trifluoromethyl)benzyl)-3,4-dihydrophthalazin-1-yl)-1H-indol-1-yl)acetic acid] reads 296 nM; that for `Cc1c(-c2ccc(=O)n(Cc3ccccc3)n2)c2cc(F)ccc2n1C(=O)c1cccnc1` [Example 262b, 2-benzyl-6-(5-fluoro-2-methyl-1-nicotinoyl-1H-indol-3-yl)pyridazin-3(2H)-one], > 10000 nM. Turning to `Cc1c(-c2ccc(=O)n(Cc3nnc[nH]3)n2)c2cc(F)ccc2n1CC(=O)O` [Example 260a, 2-(3-(1-((4H-1,2,4-triazol-3-yl)methyl)-6-oxo-1,6-dihydropyridazin-3-yl)-5-fluoro-2-methyl-1H-indol-1-yl)acetic acid], the IC50 came out at 3380 nM. On to `Cc1c(-c2nn(Cc3ccc(OC(F)(F)F)cc3)c(=O)c3ccccc23)c2cc(F)ccc2n1CC(=O)O` [Example 117, 2-(5-fluoro-2-methyl-3-(4-oxo-3-(4-(trifluoromethoxy)benzyl)-3,4-dihydro-phthalazin-1-yl)-1H-indol-1-yl)acetic acid], for which the IC50 is 22 nM.

Molecule `Cc1c(-c2nn(CC(N)=O)c(=O)c3ccccc23)c2cc(F)ccc2n1CC(=O)O` [Example 258, {3-[3-(2-amino-2-oxoethyl)-4-oxo-3,4-dihydrophthalazin-1-yl]-5-fluoro-2-methyl-1H-indol-1-yl}acetic acid] registered an IC50 of 11 nM.

Turning to `Cc1c(Cc2ccc(=O)n(Cc3ccccn3)n2)c2cc(F)ccc2n1CC(=O)O` [Example 196, 2-(5-fluoro-2-methyl-3-((6-oxo-1-(pyridin-2-ylmethyl)-1,6-dihydropyridazin-3-yl)methyl)-1H-indol-1-yl)acetic acid], the IC50 is 18 nM. In turn, `Cc1c(-c2cn(Cc3ccccn3)c(=O)c3ccccc23)c2cc(F)ccc2n1CC(=O)O` [Example 95, 2-(5-fluoro-2-methyl-3-(1-oxo-2-(pyridin-2-ylmethyl)-1,2-dihydro-isoquinolin-4-yl)-1H-indol-1-yl)acetic acid] yielded an IC50 of 9 nM.

The molecule `Cc1c(-c2nn(Cc3c(F)cccc3F)c(=O)c3ccccc23)c2ccccc2n1CC(=O)O` [Example 172, 2-(3-(3-(2,6-difluorobenzyl)-4-oxo-3,4-dihydrophthalazin-1-yl)-2-methyl-1H-indol-1-yl)acetic acid] came in with an IC50 of 40 nM. Consider `Cc1c(-c2nn(CC3CC3)c(=O)c3ccccc23)c2cc(F)ccc2n1CC(=O)O` [Example 122, 2-(3-(3-(cyclopropylmethyl)-4-oxo-3,4-dihydrophthalazin-1-yl)-5-fluoro-2-methyl-1H-indol-1-yl)acetic acid], for which the IC50 was 27 nM. `Cc1c(-c2nn(Cc3nc4cc(Cl)ccc4s3)c(=O)c3ccccc23)c2cc(Cl)ccc2n1CC(=O)O` [Example 209, 2-(5-chloro-3-(3-((5-chlorobenzo[d]thiazol-2-yl)methyl)-4-oxo-3,4-dihydro-phthalazin-1-yl)-2-methyl-1H-indol-1-yl)acetic acid] yielded an IC50 of 14 nM. With `CC(C)=CCn1nc(-c2c(C)n(CC(=O)O)c3ccc(F)cc23)c2ccccc2c1=O` [Example 130, 2-(5-fluoro-2-methyl-3-(3-(3-methylbut-2-enyl)-4-oxo-3,4-dihydro-phthalazin-1-yl)-1H-indol-1-yl)acetic acid], the IC50 is > 1000 nM. The molecule `Cc1c(-c2ccc(=O)n(Cc3cccc(F)c3C(F)(F)F)n2)c2cc(F)ccc2n1CC(=O)O` [Example 156, 2-(5-fluoro-3-(1-(3-fluoro-2-(trifluoromethyl)benzyl)-6-oxo-1,6-dihydro-pyridazin-3-yl)-2-methyl-1H-indol-1-yl)acetic acid] yielded a half-inhibitory concentration (IC50) of 25 nM.

A word on the IC50: it is the concentration that gives 50% inhibition.
